7 molecules from ChEMBL document CHEMBL1201862, “PubChem BioAssay data set” (2004) can be followed below.

Calls of active or inactive are those of the source.

In experiment [1] the target is Signal transducer and activator of transcription 1-alpha/beta (Homo sapiens, UniProt P42224). In words: STAT3 inhibitors, late-stage profile, late-stage follow-up, cell-based, STAT1 panel, qPCR, cytotoxicity, panel member STAT1 Inhibition (AID 2078). A general note: Quantitative PCR measures a nucleic acid by following its amplification.
Signal transducer and activator of transcription 1-alpha/beta, sequence (P42224 whole entry): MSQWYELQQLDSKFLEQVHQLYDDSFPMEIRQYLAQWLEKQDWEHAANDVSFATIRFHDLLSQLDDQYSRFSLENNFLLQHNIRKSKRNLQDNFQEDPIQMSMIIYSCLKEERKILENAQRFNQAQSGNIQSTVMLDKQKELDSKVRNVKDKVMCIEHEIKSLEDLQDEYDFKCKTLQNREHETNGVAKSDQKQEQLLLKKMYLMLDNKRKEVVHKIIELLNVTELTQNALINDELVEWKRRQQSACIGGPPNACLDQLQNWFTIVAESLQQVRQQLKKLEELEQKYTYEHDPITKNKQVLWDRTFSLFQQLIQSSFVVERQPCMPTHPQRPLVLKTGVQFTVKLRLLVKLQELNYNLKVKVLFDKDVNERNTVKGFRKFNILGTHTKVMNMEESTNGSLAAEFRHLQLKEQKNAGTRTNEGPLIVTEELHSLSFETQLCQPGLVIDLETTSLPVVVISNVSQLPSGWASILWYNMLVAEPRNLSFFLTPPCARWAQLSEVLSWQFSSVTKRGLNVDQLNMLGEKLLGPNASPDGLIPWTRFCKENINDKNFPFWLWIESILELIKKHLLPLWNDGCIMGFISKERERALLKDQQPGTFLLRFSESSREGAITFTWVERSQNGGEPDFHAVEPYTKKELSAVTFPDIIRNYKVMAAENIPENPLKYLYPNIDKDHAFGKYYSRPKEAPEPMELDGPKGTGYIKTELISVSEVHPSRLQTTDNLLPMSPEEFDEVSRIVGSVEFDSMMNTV
Experiment [2] deals with Signal transducer and activator of transcription 3 (Homo sapiens, UniProt P40763). The experiment in a line: STAT3 inhibitors, late-stage profile, late-stage follow-up, cell-based, STAT1 panel, qPCR, cytotoxicity, panel member STAT3 Inhibition (AID 2078).
Signal transducer and activator of transcription 3, sequence (P40763 whole entry): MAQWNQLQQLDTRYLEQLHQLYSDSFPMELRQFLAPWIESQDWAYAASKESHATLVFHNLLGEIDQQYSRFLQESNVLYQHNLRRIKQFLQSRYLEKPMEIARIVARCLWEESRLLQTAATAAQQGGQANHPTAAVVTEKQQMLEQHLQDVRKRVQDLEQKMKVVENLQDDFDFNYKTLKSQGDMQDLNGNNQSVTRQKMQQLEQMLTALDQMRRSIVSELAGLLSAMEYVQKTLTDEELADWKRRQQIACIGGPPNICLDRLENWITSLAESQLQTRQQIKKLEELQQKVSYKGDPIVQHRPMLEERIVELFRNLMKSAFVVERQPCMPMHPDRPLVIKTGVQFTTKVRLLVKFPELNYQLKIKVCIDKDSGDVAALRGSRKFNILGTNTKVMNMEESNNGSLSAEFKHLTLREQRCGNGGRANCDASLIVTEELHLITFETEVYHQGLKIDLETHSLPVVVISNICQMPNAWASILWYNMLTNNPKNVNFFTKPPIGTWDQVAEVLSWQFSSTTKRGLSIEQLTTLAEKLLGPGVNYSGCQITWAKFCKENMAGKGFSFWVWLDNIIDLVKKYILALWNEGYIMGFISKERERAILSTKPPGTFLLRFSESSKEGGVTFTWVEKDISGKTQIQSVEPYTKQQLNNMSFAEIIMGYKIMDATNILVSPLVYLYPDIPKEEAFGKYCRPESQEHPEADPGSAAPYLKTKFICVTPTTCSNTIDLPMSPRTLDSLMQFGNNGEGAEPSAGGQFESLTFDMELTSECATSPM
Experiment [3] deals with Sphingosine 1-phosphate receptor 1 (Homo sapiens, UniProt P21453). In words: Fluorescence-based counterscreen assay for S1P4 agonists: Cell-based dose response high throughput screening assay to identify agonists of the Sphingosine 1-Phosphate Receptor 1 (S1P1). [Related pubchem assays (depositor defined):AID1509, AID1523, AID1801, AID463107, AID463118, AID463119, AID463122, AID463123, AID463129, AID463225, AID504400, AID504460]. It is filed as functional.
Sphingosine 1-phosphate receptor 1, sequence (P21453 whole entry): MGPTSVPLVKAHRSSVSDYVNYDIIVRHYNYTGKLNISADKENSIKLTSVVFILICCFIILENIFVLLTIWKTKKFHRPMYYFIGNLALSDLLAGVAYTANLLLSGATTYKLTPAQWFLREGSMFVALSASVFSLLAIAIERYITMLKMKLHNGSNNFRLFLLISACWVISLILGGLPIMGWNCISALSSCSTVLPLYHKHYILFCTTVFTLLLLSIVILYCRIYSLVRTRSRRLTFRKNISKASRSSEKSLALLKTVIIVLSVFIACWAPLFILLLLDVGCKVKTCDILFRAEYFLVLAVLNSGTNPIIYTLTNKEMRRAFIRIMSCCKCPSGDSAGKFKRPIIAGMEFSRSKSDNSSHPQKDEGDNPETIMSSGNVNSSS

Experiment [4] addresses T1, Sphingosine 1-phosphate receptor 4 (Homo sapiens, UniProt O95977).
T1 sequence (O95977 whole entry): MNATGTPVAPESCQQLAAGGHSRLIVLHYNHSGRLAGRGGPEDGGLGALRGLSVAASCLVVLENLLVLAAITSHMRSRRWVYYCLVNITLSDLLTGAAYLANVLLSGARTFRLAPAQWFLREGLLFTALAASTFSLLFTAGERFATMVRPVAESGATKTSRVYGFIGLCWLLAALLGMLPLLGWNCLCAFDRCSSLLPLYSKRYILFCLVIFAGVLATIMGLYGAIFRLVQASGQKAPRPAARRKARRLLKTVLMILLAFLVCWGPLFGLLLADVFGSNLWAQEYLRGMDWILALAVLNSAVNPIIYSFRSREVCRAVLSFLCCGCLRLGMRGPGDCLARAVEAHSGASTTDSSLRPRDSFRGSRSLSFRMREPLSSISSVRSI
In words: Fluorescence dose response cell-based high throughput screening assay for agonists of the Sphingosine 1-Phosphate Receptor 4 (S1P4). [Related pubchem assays: 1509 (Primary screen.), 1523 (Confirmation screen in triplicates.)]. It is filed as functional.

Experiment [5] addresses T2, Mu-type opioid receptor (Homo sapiens, UniProt P35372). The experiment in a line: MOR agonists by imaging, SAR follow-up, image-based (AID 2352). It is filed as functional.
Experiment [6] has as its target T3, Delta-type opioid receptor (Homo sapiens, UniProt P41143). The experiment in a line: DOR agonists, SAR follow-up, image-based (AID 2370). It is filed as functional.
The target in experiment [7] is T3, Delta-type opioid receptor. In words: DOR antagonists, SAR follow-up, image-based (AID 2357). It is filed as functional.
Experiment [8] concerns the target T4, Kappa-type opioid receptor (Homo sapiens, UniProt P41145). The experiment in a line: kappa opioid receptor blockers, cell-based, luminescence, beta-arrestin, SAR follow-up (AID 2285). In kind it is functional.
The target of experiment [9] is T4, Kappa-type opioid receptor. In words: KOR antagonists by imaging, SAR follow-up, image-based (AID 2348). It is filed as functional.
The target in experiment [10] is T4, Kappa-type opioid receptor. The experiment in a line: KOR agonist analogs, imaging readout, SAR follow-up, image-based (AID 2359). In kind it is functional.
Experiment [11] has as its target T5, Dual specificity protein phosphatase 3 (Homo sapiens, UniProt P51452). In words: SAR VHR1 Fluorescent Assay for In Vitro dose response studies Set 2. [Related pubchem assays (depositor defined):AID1654, AID1661, AID1878]. In kind it is functional.
Experiment [12] addresses T2, Mu-type opioid receptor. The experiment in a line: MOR antagonists, SAR follow-up, image-based (AID 2420).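 Also: compounds added before stimulation of receptor with agonist DAMGO.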 It is filed as functional.
In experiment [13] the target is T6, Tyrosine-protein phosphatase non-receptor type 7 (Homo sapiens, UniProt P35236).
T6 sequence (P35236 whole entry): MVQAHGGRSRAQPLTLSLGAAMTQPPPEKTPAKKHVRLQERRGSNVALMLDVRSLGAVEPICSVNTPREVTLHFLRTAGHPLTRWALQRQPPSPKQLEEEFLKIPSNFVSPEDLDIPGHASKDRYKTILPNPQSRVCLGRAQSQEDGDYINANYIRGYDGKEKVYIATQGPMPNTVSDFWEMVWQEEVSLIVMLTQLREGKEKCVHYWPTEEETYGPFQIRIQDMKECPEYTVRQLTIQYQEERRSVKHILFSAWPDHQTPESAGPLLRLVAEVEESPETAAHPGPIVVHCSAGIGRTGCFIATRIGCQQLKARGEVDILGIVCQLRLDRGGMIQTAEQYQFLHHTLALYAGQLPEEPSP
The experiment in a line: SAR analysis of chemical inhibitors of HePTP using a Fluorescent assay - Set 2. [Related pubchem assays (depositor defined):AID1059, AID1077, AID1661, AID2085, AID521]. It is filed as functional.

Experiment [14] concerns the target Peroxisome proliferator-activated receptor gamma (Homo sapiens, UniProt P37231). In words: PPARg partial agonists, dose response, cell-based, luminescence, assay provider (AID 504447). It is filed as functional.
Experiment [15] has as its target Sphingosine 1-phosphate receptor 3 (Homo sapiens, UniProt Q99500). In words: Late stage counterscreen assay for S1P4 antagonists: Fluorescence dose response cell-based screening assay for antagonists of the Sphingosine 1-Phosphate Receptor 3 (S1P3). [Related pubchem assays (depositor defined):AID1510, AID1524, AID1692, AID1853, AID2332, AID489009, AID489017]. It is filed as functional. (In general: A counterscreen serves to expose hits that act by an unwanted route or on another target.)

Experiment [16] has as its target Sphingosine 1-phosphate receptor 5 (Homo sapiens, UniProt Q9H228). The experiment in a line: Late stage counterscreen assay for S1P4 antagonists: Fluorescence dose response cell-based screening assay for antagonists of the Sphingosine 1-Phosphate Receptor 5 (S1P5). [Related pubchem assays (depositor defined):AID1510, AID1524, AID1692, AID1853, AID2332, AID489009, AID489017]. It is filed as functional.

For experiment [17], the target named is Sphingosine 1-phosphate receptor 2 (Homo sapiens, UniProt O95136). In words: Late stage counterscreen assay for S1P4 antagonists: Fluorescence dose response cell-based screening assay for antagonists of the Sphingosine 1-Phosphate Receptor 2 (S1P2). [Related pubchem assays (depositor defined):AID1510, AID1524, AID1692, AID1853, AID2332, AID489009, AID489017]. It is filed as functional.

The target of experiment [18] is Dual specificity protein phosphatase 6 (Rattus norvegicus, UniProt Q64346). The experiment in a line: MKP-3 phosphatase inhibitors, primary screen, biochemical, rat enzyme, in vitro (AID 425).
Dual specificity protein phosphatase 6, sequence (Q64346 whole entry): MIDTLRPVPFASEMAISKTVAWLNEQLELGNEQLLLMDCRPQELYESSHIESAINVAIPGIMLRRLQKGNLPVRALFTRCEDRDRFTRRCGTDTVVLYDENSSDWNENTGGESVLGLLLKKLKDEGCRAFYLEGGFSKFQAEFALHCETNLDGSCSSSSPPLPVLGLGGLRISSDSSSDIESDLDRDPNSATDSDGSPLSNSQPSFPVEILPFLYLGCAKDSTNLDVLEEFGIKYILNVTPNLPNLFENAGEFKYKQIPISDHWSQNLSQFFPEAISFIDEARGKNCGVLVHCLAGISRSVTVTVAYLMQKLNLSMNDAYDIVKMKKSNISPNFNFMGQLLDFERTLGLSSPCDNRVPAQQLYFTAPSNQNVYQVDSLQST
For experiment [19], the target named is T5, Dual specificity protein phosphatase 3. In words: VHR1 phosphatase inhibitors, primary screen, biochemical, absorbance, uHTS (AID 1654).
The target is the same in experiment [20]. The experiment in a line: VHR1 phosphatase inhibitors, biochemical (AID 1878).
Experiment [21] concerns the target Voltage-dependent T-type calcium channel subunit alpha-1H (Homo sapiens, UniProt O95180). The experiment in a line: Cav3.2 T-type channel inhibitors, synthesized analogs, SAR follow-up, cell-based, synthetic library set 2, HEK293 HH8, Fluo-4 (AID 493023). It is filed as functional.

T4 sequence (P41145 whole entry): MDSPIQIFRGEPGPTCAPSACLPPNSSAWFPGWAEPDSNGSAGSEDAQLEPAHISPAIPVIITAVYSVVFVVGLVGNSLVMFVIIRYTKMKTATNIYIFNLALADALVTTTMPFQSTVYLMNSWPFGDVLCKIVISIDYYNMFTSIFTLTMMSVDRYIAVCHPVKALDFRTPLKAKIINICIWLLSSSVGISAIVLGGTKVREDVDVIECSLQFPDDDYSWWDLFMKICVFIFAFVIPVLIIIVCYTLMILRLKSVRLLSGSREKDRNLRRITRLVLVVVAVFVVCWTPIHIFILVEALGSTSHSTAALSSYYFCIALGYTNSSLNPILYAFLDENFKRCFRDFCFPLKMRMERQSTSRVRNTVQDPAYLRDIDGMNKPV
T5 sequence (P51452 whole entry): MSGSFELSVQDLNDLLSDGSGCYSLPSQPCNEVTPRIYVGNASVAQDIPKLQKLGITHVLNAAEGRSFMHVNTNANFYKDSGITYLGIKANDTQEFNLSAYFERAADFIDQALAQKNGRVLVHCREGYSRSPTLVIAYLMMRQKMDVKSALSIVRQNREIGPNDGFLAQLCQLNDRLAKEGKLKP
T2 sequence (P35372 whole entry): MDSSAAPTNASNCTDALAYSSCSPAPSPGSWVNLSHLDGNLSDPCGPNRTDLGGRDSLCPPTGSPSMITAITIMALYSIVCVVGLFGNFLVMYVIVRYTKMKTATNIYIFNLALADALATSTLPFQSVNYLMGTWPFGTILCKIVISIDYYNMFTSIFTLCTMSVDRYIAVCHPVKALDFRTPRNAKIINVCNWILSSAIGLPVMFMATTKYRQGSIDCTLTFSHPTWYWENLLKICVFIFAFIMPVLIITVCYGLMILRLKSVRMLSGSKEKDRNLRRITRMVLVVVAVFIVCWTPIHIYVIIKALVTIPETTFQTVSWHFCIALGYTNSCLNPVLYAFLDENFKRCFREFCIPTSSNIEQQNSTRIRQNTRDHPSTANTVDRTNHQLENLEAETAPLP
T3 sequence (P41143 whole entry): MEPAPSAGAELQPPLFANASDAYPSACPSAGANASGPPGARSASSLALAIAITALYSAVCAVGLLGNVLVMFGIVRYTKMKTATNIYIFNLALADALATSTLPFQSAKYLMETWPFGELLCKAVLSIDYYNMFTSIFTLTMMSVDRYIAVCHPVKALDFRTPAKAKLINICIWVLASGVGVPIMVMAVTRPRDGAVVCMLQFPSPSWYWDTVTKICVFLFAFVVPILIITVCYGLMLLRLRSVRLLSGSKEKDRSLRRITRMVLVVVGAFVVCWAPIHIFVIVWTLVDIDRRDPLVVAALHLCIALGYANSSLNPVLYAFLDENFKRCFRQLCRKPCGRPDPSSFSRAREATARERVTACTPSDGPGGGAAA
Sphingosine 1-phosphate receptor 3, sequence (Q99500 whole entry): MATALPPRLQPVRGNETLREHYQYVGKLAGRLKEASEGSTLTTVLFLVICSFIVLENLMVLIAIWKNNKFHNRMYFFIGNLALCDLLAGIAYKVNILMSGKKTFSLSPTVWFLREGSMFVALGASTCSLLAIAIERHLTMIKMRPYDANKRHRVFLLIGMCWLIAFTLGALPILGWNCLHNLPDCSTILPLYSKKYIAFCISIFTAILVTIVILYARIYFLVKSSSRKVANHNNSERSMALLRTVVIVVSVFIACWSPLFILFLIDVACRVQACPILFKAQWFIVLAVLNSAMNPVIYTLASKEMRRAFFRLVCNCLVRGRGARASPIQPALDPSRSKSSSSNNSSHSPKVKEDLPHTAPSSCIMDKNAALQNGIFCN
Peroxisome proliferator-activated receptor gamma, sequence (P37231 whole entry): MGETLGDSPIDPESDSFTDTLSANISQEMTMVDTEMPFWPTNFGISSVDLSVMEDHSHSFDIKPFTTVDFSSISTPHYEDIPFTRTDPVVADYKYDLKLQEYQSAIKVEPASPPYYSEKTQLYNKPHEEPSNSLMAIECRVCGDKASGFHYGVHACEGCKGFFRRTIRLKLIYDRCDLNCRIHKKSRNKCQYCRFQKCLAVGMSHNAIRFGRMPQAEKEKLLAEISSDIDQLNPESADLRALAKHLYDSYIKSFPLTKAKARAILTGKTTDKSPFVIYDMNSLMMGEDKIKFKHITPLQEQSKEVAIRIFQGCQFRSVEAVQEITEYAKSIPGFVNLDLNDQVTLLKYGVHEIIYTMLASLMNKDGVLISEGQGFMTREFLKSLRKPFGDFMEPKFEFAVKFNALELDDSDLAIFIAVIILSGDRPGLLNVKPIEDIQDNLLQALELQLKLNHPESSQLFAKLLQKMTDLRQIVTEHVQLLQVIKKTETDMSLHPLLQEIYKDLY
Sphingosine 1-phosphate receptor 5, sequence (Q9H228 whole entry): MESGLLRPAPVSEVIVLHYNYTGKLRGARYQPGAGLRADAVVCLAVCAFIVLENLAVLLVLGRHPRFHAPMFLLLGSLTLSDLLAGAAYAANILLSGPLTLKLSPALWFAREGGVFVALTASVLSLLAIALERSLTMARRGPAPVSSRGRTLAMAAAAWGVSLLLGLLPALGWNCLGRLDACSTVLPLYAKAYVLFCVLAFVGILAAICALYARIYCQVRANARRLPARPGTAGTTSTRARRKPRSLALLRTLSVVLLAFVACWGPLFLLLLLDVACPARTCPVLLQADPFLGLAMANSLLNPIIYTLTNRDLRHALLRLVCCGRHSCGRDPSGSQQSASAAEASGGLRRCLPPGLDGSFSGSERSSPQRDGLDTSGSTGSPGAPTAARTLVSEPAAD

Consider `c1ccc(Cc2nc(N3CCC(Cc4ccccc4)CC3)c3c4c(sc3n2)CCCC4)cc1`, for which the IC50 in experiment [1] and in [2] was > 55.7 µM (inactive) in each case.
For the molecule `COc1cccc(C2CN(c3ccc(F)cc3F)N=C2c2cccs2)c1OC` (stereo unspecified), the EC50 (in general, the concentration needed to bring the measured effect to its halfway point) was 7.49 µM (active) in [3] and 11.1 µM (not active) in experiment [4].
With `Cc1ccc(NC(=S)NC(NC(=O)OCc2ccccc2)C(Cl)(Cl)Cl)cc1` (stereo unspecified), the EC50 (at Mu-type opioid receptor [5]; in experiment [6]; in experiment [10]) was > 32 µM (inactive) each time. Also, the IC50 (usually the point on the concentration scale where inhibition reaches its midpoint) is > 32 µM (inactive) in experiment [7]; > 10 µM (inactive) in experiment [8]; > 32 µM (inactive) in experiment [9]; > 100 µM (inactive) in experiment [11]; > 32 µM (inactive) at Mu-type opioid receptor [12]; > 100 µM (inactive) in experiment [13].
`O=C(Nc1ccccc1Cl)C(=O)c1cn(CC(=O)N2CCOCC2)c2ccccc12`: the EC50 in [14] is 2 µM (active).
As to `Cc1cccc(C)c1NC(=O)c1ccc(-c2cc(Cl)ccc2Cl)o1`, the IC50 was 19.5 µM (inactive) in experiment [15], > 25 µM (inactive) in [16] and 7.88 µM (active) in [17].
`O=C(O)C1CCC(N2C(=O)c3c(Cl)c(Cl)c(Cl)c(Cl)c3C2=O)CC1` (stereo unspecified): the IC50 in [18] is 113 µM (not active); in [19] it was 5.1 µM (active); in experiment [20], 3.6 µM (active).
Consider `CC(C)(C)CCN1CCC[C@H](NC(=O)COc2ccccc2Cl)C1`, for which the EC50 in experiment [21] is 10 µM (active).
